Measured values: US10759740B2, “Antibacterial agents” (Rutgers, The State University of New Jersey, priority 2016, dated 2020)

Columns and labels:
[1] = tested on: Peptostreptococcus anaerobius ATCC 27337; assay: MIC broth microdilution (Example 3); format: cell-based; conditions: planktonic, anaerobic
Procedure: (§1) The antimicrobial activity of CAms was also tested against Peptostreptococcus anaerobius ATCC 27337, Mobiluncus curtisii ATCC 35241 and Prevotella bivia ATCC 29303, all of which, in addition to G. vaginalis, are the most commonly isolated anaerobes from BV-infected women. These anaerobes were maintained within the anaerobic chamber and transferred daily into fresh sBHI. To prepare a stock solution, the CAm compounds were dissolved in ddH2O and incubated at 37° C. with shaking at 250 rpm for 10 min. Then, the solution was serially diluted twofold with sBHI broth to determine the MIC and with BHIG broth to identify the MIC-B/MBC-B against planktonic and biofilm cells, respectively. According to Clinical and Laboratory Standards Institute (CLSI 2010), the MIC is defined as the lowest concentration of antimicrobial compound producing no visible growth or complete inhibition of bacterial growth during 24 h. To determine MIC values, the broth microdilution assay was performed according to Algburi et al. (Algburi et al., 2015. Path Dis 73(5)) with minor modifications. Briefly, the overnight-grown cells were diluted with their suitable culture medium to approach ˜10^6 CFU/ml. The number of bacterial cells was identified using spot plate method (Turovskiy et al., 2012. Infect Dis Obstet Gynecol 2012:284762). The CAms were serially diluted twofold with sBHI into a non-tissue culture 96-well microplate plate (Falcon, Corning Incorporated, Corning, N.Y., USA) resulting in a final volume of 100 μl for each well. Aliquots of 100 μl of the diluted cell suspension (˜10^6 CFU/ml) were added to each well of a microplate that was treated with different concentrations of CAms. To avoid culture medium evaporation, 75 μl of mineral oil (Sigma-Aldrich, St. Louis, Mo.) was added to each treated well. The microplate was then transferred to the plate reader (Model 550, Bio-Rad Laboratories, Hercules, Calif., USA) and incubated at 37° C. for 24-36 h. The kinetic reading was statistically analyzed, and the MIC and sub-MIC of each CAm compound were determined.

[2] = tested on: Prevotella bivia ATCC 29303; assay: MIC broth microdilution (Example 3); format: cell-based; conditions: planktonic, anaerobic
Procedure: as §1

[3] = tested on: Mobiluncus curtisii ATCC 35241; assay: MIC broth microdilution (Example 3); format: cell-based; conditions: planktonic, anaerobic
Procedure: as §1

G. vaginalis ATCC 14019 = assay: MIC broth microdilution (Example 3); format: cell-based, Gardnerella vaginalis; conditions: planktonic, sBHI, anaerobic
Procedure: G. vaginalis ATCC 14019 strain was grown overnight in Brain Heart Infusion broth (Difco, Sparks, Md.) supplemented with 3% horse serum (sBHI) (JRH Biosciences, KS), while BHI supplemented with 1% glucose (BHIG) was used for biofilm formation assays. Each experiment using G. vaginalis was performed anaerobically (10% hydrogen, 5% carbon dioxide, and 85% nitrogen) within anaerobic glove boxes (Coy Laboratory Products, Inc., Grass Lake, Mich., USA). Three species of vaginal Lactobacillus were used in this study to evaluate the possible harmful effects of CAms on beneficial bacteria: Lactobacillus plantarum ATCC 39268, Lactobacillus rhamnosus 160 (provided by Dr. Aroutcheva, Rush University Medical Center) and Lactobacillus gasseri ATCC 33323; all were grown for 18-24 h in DeMan, Rogosa and Sharpe broth (MRS Difco B D, Franklin Lakes, N.J., USA) under aerobic conditions at 37° C. For lactobacilli biofilm formation, MRS broth supplemented with 1% glucose and 2% sucrose (Fisher Scientific, Waltham, Mass., USA) was utilized.
To prepare a stock solution, the CAm compounds were dissolved in ddH2O and incubated at 37° C. with shaking at 250 rpm for 10 min. Then, the solution was serially diluted twofold with sBHI broth to determine the MIC and with BHIG broth to identify the MIC-B/MBC-B against planktonic and biofilm cells, respectively.
According to Clinical and Laboratory Standards Institute (CLSI 2010), the MIC is defined as the lowest concentration of antimicrobial compound producing no visible growth or complete inhibition of bacterial growth during 24 h. To determine MIC values, the broth microdilution assay was performed according to Algburi et al. (Algburi et al., 2015. Path Dis 73(5)) with minor modifications. Briefly, the overnight-grown cells were diluted with their suitable culture medium to approach ˜10^6 CFU/ml. The number of bacterial cells was identified using spot plate method (Turovskiy et al., 2012. Infect Dis Obstet Gynecol 2012:284762). […]

[4] = tested on: Salmonella enterica serovar typhimurium; assay: Broth microdilution assay (MIC); format: cell-based; conditions: BHI broth, 37° C., 24 h, no visible growth
Procedure: From the frozen stock (−80° C.), bacteria were inoculated into brain-hear infusion (BHI) agar (Becton Dickinson, Franklin Lakes, N.J.) and propagated under aerobic conditions at 37° C. for 24 h. After the incubation, one colony of each bacterial strain was transferred to BHI broth (Becton Dickinson, Franklin Lakes, N.J.) and sub-cultured at least twice into BHI before being used in experiments.
The minimal inhibitory concentration (MIC) of CAms were identified using a broth microdilution assay modified from previous studies. Briefly, the stock solutions of CAMs were first prepared by dissolving in double-distilled water (ddH2O) and then diluted in BHI broth at pre-determined concentrations. Further serial 2-fold dilutions were performed in a 96-well microplate (Becton Dickinson, Franklin Lakes, N.J.) with BHI broth. The inoculum concentration was adjusted to 5×10^6 CFU/mL with ultraviolet-visible (UV-vis) spectroscopy at 600 nm. An equal volume (100 μL) of bacterial suspension was added to each microplate well with a final volume of 200 μL. Plates were incubated at 37° C. for 24 h under aerobic conditions. The lowest CAm concentration that yielded no visible growth was recorded as the MIC. Cetyltrimethylammonium bromide (CTAB), a cationic amphiphile, served as a positive control that could mimic the proposed bactericidal mechanism of the newly synthesized tartaric acid-based compounds.
CAms were evaluated against five selected pathogenic microorganisms, including Gram-positive bacteria (i.e., S. aureus and L. monocytogenes) and Gram-negative bacteria (i.e., E. coli, S. typhimurium, and P. aeruginosa), using a turbidity-based microdilution method. MICs were taken as the lowest concentrations that inhibited the visible bacterial growth.

Structure (SMILES) | MIC Pep. anaerobius [1] [µM] | MIC P. bivia [2] [µM] | MIC M. curtisii [3] [µM] | MIC G. vaginalis (G. vaginalis ATCC 14019) [µM] | MIC S. typhimurium (G−) [4] [mg/L]
CCCCCCCCCCOC(C(=O)NCCN)C(OCCCCCCCCCC)C(=O)NCCN.Cl.Cl (stereo not drawn) [5b] | 1.6 | 6.6 | 5.4 | 1.1 | 3.9
CCCCCCCC(=O)OC(C(=O)NCCN)C(OC(=O)CCCCCCC)C(=O)NCCN.Cl.Cl (stereo not drawn) [8a] | 13.9 | 111.6 | 93.1 | 24.4 | 62.5
CCCCCCCCCC(=O)OC(C(=O)NCCN)C(OC(=O)CCCCCCCCC)C(=O)NCCN.Cl.Cl (stereo not drawn) [8b] | 3.1 | 6.3 | 6.3 | 2.3 | 3.9
